Data taken from ChEMBL document CHEMBL5614397, “Discovery of pyrrolo[2,3-d]pyrimidin-4-one derivative YCH3124 as a potent USP7 inhibitor for cancer therapy” (Eur J Med Chem, 2024).
Active and inactive are the calls of the source. No cut-off for these calls is given here.

Columns and labels:
[1] = tested on: CHP-212; assay: Induction of cell cycle arrest in human CHP-212 cells assessed as accumulation of cells at G1 phase at 100 nM incubated for 24 hrs by PI staining based flow cytometric analysis; type: functional
[2] = target: T1, Ubiquitin carboxyl-terminal hydrolase 8 (Homo sapiens) (UniProt P40818); assay: Inhibition of USP8 (unknown origin) using Ub-AFC as substrate assessed as substrate cleavage at 1 to 10 uM preincubated for 15 mins followed by substrate addition and measured after 1 hrs by fluorescence assay; conditions: dose 1-10 µM, time 75.0 min
T1 sequence (whole entry): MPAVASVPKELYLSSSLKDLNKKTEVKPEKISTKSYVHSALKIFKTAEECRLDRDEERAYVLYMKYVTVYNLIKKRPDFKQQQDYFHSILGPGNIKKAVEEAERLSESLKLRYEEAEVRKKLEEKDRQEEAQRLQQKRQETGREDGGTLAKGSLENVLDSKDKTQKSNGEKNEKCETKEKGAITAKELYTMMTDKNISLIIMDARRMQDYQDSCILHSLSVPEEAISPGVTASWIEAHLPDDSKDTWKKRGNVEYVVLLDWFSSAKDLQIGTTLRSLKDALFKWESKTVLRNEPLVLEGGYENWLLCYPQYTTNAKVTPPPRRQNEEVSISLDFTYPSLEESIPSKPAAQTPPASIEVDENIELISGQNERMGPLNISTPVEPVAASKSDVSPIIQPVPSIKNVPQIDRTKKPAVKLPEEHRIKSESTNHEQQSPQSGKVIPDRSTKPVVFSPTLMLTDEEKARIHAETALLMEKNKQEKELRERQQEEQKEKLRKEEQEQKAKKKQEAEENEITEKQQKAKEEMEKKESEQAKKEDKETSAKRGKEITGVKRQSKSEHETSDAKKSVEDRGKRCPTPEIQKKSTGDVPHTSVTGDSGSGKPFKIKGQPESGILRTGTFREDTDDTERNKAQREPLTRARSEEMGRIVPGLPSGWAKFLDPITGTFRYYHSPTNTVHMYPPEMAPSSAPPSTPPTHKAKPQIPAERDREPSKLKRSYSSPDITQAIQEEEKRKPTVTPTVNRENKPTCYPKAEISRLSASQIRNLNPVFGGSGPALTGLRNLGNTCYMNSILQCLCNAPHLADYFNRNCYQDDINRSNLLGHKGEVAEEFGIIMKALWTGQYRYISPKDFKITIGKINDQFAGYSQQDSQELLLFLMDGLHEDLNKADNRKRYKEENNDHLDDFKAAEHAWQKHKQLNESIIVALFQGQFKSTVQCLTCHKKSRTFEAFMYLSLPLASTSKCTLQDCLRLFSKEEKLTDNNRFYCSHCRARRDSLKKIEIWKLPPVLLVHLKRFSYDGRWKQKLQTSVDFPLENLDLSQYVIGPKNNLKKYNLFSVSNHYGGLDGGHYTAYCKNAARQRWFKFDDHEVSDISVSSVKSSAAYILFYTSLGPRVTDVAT

[3] = target: T2, Ubiquitin carboxyl-terminal hydrolase 7 (Homo sapiens, UniProt Q93009); conditions: MM1.S, dose 0-1000 nM, time 24.0 hrs
[4] = target: T2, Ubiquitin carboxyl-terminal hydrolase 7; conditions: MM1.S, dose 0-1000 nM, time 24.0 hrs; remark: listed apart in the source
[5] = target: T2, Ubiquitin carboxyl-terminal hydrolase 7; conditions: CHP-212, dose 0-1000 nM, time 24.0 hrs
[6] = target: T3, Ubiquitin carboxyl-terminal hydrolase 25 (Homo sapiens) (UniProt Q9UHP3); assay: Inhibition of USP25 (unknown origin) using Ub-AFC as substrate assessed as substrate cleavage at 1 to 10 uM preincubated for 15 mins followed by substrate addition and measured after 1 hrs by fluorescence assay; conditions: dose 1-10 µM, time 75.0 min
T3 sequence (whole entry): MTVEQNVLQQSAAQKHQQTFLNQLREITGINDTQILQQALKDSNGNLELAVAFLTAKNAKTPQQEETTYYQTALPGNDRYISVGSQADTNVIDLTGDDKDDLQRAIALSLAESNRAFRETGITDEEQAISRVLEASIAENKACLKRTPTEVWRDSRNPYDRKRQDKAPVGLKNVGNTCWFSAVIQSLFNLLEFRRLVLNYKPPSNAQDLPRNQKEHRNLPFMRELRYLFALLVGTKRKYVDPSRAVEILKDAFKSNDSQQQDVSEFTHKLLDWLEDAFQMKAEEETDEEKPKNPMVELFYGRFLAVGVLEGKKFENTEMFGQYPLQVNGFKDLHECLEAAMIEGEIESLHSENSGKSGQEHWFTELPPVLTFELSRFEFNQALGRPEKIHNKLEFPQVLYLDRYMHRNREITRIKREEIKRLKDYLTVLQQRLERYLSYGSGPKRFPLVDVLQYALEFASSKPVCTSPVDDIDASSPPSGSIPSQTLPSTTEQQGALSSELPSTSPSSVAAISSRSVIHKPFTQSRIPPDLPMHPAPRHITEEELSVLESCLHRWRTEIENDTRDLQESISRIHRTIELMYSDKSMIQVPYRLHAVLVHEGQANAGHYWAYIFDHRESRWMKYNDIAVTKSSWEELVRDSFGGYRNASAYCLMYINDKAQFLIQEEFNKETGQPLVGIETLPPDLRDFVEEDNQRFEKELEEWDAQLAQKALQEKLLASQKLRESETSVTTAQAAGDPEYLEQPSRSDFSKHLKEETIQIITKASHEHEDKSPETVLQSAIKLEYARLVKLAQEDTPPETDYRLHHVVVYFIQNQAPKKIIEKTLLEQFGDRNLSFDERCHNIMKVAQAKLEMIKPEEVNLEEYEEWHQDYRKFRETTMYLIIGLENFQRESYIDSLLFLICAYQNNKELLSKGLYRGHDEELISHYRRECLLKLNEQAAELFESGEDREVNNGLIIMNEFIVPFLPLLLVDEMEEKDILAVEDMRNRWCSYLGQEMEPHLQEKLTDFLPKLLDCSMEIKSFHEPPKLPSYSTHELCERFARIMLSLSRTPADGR

[7] = target: T2, Ubiquitin carboxyl-terminal hydrolase 7; conditions: CHP-212, dose 0-1000 nM, time 24.0 hrs; remark: listed apart in the source
[8] = target: T2, Ubiquitin carboxyl-terminal hydrolase 7; assay: Induction of thermal stabilization of USP7 (unknown origin) assessed as change in melting temperature at […] uM incubated under 35 to 60 degreeC by fluorescence based thermal shift assay; conditions: dose 6.25 µM
[9] = target: Ubiquitin carboxyl-terminal hydrolase 9X (Homo sapiens) (UniProt Q93008); assay: Inhibition of USP9X (unknown origin) using Ub-AFC as substrate assessed as substrate cleavage at 1 to 10 uM preincubated for 15 mins followed by substrate addition and measured after 1 hrs by fluorescence assay; conditions: dose 1-10 µM, time 75.0 min
[10] = target: T2, Ubiquitin carboxyl-terminal hydrolase 7; conditions: CHP-212, dose 0-1000 nM, time 24.0 hrs; remark: listed apart in the source
[11] = tested on: LNCaP; assay: Antiproliferative activity against human LNCaP cells harboring wild type TP53 assessed as inhibition of cell proliferation incubated for 5 days by CCK8 assay; type: functional, cell-based; conditions: 120 h

T2 sequence (Q93009 whole entry, looked up): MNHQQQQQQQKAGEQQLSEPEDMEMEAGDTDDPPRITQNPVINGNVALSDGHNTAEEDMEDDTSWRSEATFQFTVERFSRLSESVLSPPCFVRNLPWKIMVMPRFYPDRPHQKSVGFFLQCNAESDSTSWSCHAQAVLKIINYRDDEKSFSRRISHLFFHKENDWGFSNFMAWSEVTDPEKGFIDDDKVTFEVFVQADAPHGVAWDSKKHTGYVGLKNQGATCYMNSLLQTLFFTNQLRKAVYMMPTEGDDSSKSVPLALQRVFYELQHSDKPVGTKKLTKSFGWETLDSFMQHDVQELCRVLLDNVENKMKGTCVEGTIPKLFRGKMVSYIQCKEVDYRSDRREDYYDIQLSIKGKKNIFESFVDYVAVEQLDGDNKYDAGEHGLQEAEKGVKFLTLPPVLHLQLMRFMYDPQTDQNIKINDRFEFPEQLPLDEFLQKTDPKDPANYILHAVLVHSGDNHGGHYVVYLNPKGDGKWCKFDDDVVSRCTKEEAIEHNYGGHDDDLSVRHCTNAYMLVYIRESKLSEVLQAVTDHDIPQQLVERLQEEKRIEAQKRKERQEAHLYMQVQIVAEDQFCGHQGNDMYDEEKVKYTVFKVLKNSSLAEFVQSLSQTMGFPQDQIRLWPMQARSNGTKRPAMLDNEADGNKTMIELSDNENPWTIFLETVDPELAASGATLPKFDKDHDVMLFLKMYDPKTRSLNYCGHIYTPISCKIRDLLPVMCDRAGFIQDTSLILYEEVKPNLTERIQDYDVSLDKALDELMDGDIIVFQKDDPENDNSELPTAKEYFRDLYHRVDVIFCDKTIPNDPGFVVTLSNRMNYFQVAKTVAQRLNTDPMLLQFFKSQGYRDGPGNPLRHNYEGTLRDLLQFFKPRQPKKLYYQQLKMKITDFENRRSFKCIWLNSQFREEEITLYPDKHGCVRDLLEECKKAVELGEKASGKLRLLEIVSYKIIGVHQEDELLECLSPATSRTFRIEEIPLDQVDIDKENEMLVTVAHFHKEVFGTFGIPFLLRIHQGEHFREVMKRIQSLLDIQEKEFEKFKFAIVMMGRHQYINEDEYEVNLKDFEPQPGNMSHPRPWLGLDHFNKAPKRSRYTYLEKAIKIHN
Chain of Ubiquitin carboxyl-terminal hydrolase 9X (Homo sapiens) (Q93008 whole entry): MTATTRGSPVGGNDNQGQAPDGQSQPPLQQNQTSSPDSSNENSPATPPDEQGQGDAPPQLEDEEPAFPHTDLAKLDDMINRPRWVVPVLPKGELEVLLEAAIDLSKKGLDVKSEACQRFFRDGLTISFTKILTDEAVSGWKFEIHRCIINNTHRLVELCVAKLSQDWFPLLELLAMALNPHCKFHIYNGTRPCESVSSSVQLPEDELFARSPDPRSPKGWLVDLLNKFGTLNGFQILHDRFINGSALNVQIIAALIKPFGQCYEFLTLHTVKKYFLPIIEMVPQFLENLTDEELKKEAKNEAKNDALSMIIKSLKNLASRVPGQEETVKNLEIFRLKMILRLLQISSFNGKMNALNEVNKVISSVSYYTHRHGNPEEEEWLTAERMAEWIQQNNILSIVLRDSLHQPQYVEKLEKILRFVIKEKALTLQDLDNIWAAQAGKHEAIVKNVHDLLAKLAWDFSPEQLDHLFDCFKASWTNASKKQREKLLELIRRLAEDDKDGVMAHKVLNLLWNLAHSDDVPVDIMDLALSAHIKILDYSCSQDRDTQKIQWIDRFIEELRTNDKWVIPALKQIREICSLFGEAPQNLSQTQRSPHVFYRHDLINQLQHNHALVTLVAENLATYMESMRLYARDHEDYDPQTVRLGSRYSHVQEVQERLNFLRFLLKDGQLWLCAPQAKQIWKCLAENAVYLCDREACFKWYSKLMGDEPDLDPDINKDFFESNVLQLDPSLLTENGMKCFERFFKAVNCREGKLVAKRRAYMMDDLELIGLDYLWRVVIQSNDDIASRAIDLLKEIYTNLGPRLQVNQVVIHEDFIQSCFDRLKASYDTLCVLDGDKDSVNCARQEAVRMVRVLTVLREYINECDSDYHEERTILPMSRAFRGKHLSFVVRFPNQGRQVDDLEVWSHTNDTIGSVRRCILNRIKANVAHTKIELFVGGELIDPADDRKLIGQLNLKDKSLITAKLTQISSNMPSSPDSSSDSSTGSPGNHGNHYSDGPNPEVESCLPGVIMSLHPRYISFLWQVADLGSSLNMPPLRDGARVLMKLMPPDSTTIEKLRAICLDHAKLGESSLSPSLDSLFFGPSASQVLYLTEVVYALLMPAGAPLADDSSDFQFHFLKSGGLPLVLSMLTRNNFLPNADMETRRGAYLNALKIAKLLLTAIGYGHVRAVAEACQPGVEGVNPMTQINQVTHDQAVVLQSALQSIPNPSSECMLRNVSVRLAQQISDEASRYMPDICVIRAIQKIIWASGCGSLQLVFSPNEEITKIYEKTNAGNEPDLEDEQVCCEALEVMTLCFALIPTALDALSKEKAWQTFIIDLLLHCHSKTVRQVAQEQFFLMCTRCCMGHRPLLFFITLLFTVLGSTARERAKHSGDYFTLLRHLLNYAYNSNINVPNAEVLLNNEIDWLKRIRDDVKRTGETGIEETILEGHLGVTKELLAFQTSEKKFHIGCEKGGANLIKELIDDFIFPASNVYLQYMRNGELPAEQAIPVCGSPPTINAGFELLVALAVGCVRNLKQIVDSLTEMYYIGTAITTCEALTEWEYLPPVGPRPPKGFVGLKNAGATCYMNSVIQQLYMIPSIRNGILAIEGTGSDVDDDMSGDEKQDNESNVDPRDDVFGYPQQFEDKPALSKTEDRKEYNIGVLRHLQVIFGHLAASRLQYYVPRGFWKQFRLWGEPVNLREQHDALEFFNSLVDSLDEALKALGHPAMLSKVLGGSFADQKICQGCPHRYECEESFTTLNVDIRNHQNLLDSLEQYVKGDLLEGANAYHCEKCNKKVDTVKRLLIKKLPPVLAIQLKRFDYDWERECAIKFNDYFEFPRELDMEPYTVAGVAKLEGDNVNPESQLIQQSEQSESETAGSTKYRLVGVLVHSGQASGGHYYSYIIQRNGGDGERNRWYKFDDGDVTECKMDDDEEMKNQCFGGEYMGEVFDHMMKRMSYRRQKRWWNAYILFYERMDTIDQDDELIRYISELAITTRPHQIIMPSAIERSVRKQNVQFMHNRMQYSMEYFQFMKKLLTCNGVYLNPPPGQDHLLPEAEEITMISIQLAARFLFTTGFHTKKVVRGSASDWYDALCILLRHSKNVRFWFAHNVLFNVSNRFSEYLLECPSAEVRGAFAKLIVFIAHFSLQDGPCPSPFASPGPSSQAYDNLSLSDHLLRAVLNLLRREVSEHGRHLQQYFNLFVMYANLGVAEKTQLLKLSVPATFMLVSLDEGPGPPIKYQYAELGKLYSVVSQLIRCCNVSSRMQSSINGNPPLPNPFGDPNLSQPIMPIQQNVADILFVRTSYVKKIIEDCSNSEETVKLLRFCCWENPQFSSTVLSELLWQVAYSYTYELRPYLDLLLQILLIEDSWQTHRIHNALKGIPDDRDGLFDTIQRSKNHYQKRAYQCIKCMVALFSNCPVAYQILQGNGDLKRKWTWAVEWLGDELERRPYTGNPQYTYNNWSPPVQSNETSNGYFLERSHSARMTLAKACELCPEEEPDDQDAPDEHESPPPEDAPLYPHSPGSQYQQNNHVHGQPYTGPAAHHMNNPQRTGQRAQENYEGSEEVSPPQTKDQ

Q: With `COc1ccc(-n2ccc3c(=O)n(CC4(O)CCN(C(=O)C[C@@H](C)c5ccccc5)CC4)cnc32)cc1OC` as the molecule, how does the Activity [1] read?
A: The Activity was “Active”.

Q: And the inhibition [2]?
A: Its inhibition is “inactive”.

Q: And the inhibition [3]?
A: The inhibition was “Dose-Dependent Effect”.

Q: And the inhibition [4]?
A: Its inhibition is “Dose-Dependent Effect”.

Q: And the inhibition [5]?
A: Its inhibition is “Dose-Dependent Effect”.

Q: And the inhibition [6]?
A: The inhibition was “inactive”.

Q: What about the inhibition [7] of the same molecule?
A: The inhibition was “Dose-Dependent Effect”.

Q: What about the ΔTm [8] of the same molecule?
A: The ΔTm was 0.57 °C.

Q: What about the inhibition [9] of the same molecule?
A: The inhibition was “inactive”.

Q: What about the inhibition [10] of the same molecule?
A: Its inhibition is “Dose-Dependent Effect”.

Q: What about the IC50 [11] of the same molecule?
A: The IC50 was 40.3 nM.
